Measurements as given in BindingDB's records for doi:10.7270/Q22Z140X (Burnham Center For Chemical Genomics, 2010).

What follows are compounds tested against T1, NACHT, LRR and PYD domains-containing protein 1 (Homo sapiens, UniProt Q9C000) (assay: NALP1 inhibitors in yeast, dose response, luminescent (AID 488860)).
T1 sequence (Q9C000 whole entry): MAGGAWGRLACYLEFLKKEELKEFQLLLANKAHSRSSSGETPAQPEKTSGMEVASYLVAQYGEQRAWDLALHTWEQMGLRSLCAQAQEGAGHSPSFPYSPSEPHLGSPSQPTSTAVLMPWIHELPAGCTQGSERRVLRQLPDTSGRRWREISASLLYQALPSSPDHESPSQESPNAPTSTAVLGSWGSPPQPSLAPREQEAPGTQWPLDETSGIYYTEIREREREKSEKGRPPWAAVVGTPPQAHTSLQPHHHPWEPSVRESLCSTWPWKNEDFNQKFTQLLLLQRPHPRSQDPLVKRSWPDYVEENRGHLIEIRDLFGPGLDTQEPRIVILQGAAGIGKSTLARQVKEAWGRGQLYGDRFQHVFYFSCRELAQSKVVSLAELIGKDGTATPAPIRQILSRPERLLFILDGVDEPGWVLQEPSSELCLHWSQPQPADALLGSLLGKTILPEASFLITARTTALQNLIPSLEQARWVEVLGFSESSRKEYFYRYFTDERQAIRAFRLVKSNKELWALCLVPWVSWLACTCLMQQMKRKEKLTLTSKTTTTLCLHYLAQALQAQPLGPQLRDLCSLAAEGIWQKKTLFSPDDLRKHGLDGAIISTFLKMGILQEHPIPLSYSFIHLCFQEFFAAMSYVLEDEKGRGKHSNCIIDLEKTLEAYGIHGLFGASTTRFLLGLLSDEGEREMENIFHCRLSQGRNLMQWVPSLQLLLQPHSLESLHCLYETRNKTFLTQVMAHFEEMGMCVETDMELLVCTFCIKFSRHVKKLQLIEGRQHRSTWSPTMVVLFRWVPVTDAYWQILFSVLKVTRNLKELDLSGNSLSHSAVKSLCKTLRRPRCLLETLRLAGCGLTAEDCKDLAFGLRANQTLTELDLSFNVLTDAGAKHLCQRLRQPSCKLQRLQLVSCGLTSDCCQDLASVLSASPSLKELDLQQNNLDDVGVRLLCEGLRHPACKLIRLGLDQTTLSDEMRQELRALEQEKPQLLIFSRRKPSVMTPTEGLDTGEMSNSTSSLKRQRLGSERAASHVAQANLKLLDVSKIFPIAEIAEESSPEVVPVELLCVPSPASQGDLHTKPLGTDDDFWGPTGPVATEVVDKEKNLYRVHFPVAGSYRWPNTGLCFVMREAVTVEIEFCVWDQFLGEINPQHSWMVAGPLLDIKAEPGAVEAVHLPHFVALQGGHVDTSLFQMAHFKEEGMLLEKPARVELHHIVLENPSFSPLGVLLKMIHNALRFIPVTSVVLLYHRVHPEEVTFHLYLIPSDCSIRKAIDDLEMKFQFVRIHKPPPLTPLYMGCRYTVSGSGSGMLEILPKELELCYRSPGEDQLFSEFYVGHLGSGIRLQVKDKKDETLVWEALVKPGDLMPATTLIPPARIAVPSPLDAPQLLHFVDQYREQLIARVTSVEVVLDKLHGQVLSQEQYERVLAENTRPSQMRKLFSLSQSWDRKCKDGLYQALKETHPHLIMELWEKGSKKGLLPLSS

Point of comparison: Oc1cc(Sc2nnnn2-c2ccccc2)c(O)n1-c1cccc(Cl)c1, IC50 5.83 µM. Against it:
- Cc1ccc(-n2c(O)cc(Sc3ccccc3C(=O)O)c2O)cc1 — 5.9-fold higher, 34.4 µM
- COc1ccccc1-n1c(O)c2c(c1O)CC(c1ccccc1)CC2 (stereo not drawn) — higher, > 100 µM
